According to US10835456B2, “Propyl gallate-containing vitamin preparations” (BASF SE, priority 2016, dated 2020):

What was measured:
[1] = Particle size after dissolution in water by photon correlation spectroscopy (Malvern Zetasizer Nano ZSP); assay type: physicochemical; settings: dry powder of Example 3e, PCS
[2] = Stress test: stability in premix mixture, stored at 40° C. and 70% humidity for 4 weeks, retention of vitamin content; assay type: physicochemical; settings: for Retention Active ingredient content after 4-week premix test: Table 3c; for Retention Canthaxanthin after 4-week test: Table 5c
Description: The stress test for the vitamins is configured such that specimens of 100 mg in each case of the formulation produced and 4 g of premix mixture are weighed into glass vessels. The premix mixture consists of 50% by weight of fine lime (particle size <1000 μm), 20% by weight of wheat bran (particle size <1000 μm), 20% by weight of 50% silica-supported choline chloride (particle size <1000 μm) and 10% by weight of trace element mixture (particle size 100-500 μm). The trace element mixture is composed of 46.78% by weight of FeSO4x7H2O (100-500 μm), 37.43% by weight of CuSO4x5H2O (100-500 μm), 11.79% by weight of ZnO (<500 μm), 3.61% by weight of MnO and 0.39% by weight of CoCO3. After addition of all ingredients, the specimens are mixed cautiously, with performance of the mixing mechanically or else by hand, and these specimens (A) are stored in a climate-controlled chamber at 40° C. and 70% humidity for 4 weeks. […]
For this purpose, specimens each of 100 mg of the formulation produced and 4 g of premix mixture are weighed out in glass vessels (50 mL glass vials). The premix mixture consists of 50% by weight of fine lime (particle size <1000 μm), 20% by weight of wheat bran (particle size <1000 μm), 20% by weight of 50% silica-supported choline chloride (particle size <1000 μm) and 10% by weight of trace element mixture (particle size 100-500 μm), said trace element mixture consisting of 46.78% by weight of FeSO4x7H2O (100-500 μm), 37.43% by weight of CuSO4x5H2O (100-500 μm), 11.79% by weight of ZnO (<500 μm), 3.61% by weight of MnO and 0.39% by weight of CoCO3. After addition of all ingredients, the specimens are mixed cautiously, where the mixing can be performed mechanically or else by hand, and these specimens (A) are stored in a climate-controlled chamber at 40° C. and 70% humidity for 4 weeks. An identical test is conducted with a comparative sample (B) which is of identical composition but which comprises, rather than propyl gallate, the same amount of ethoxyquin. […] The ratio of the contents after (A2), (B2) and before the storage (A1) and (B1) are used here to calculate the retention (A2/A1) or (B2/B1) of the samples. For the formulations of the invention, a quotient (A2/A1):(B2/B1) of at least 0.75 is determined here. Preferably, for the formulations of the invention, a quotient of at least 1 is obtained.
The stability of the particles thus produced was tested in a stress test. For this purpose, specimens each of 100 mg of the particles produced and 4 g of premix mixture were weighed into 50 mL glass bottles. The premix mixture consisted of 50% by weight of fine lime (particle size <1000 μm), 20% by weight of wheat bran (particle size <1000 μm), 20% by weight of 50% silica-supported choline chloride (particle size <1000 μm) and 10% by weight of trace element mixture (particle size 100-500 μm), and the trace element mixture of 46.78% by weight of FeSO4x7H2O (100-500 μm), 37.43% by weight of CuSO4x5H2O (100-500 μm), 11.79% by weight of ZnO (<500 μm), 3.61% by weight of MnO and 0.39% by weight of CoCO3. After addition of all ingredients, the specimens were carefully mixed by hand. These specimens were stored in a climate-controlled chamber at 40° C. and 70% air humidity for 4 weeks. […]

[3] = Particle size after dissolution in water by photon correlation spectroscopy (Malvern Zetasizer Nano ZSP); assay type: physicochemical; settings: dry powder with propyl gallate added to the dispersion (Examples 1, 3b, 3c, 3d), PCS
Description: The particle size is determined by means of a Malvern Zetasizer Nano ZSP.
30 g of citranaxanthin were suspended in 240 g of isopropanol together with 1.1 g of ascorbyl palmitate and, with setting of the pressure-limiting valve to 30 bar, mixed continuously with 390 g of isopropanol in a mixing chamber A. At a metering rate of 6 L/h on the suspension side and of 9 L/h on the solvent side, a mixing temperature of 170° C. was established in the mixing chamber A. After a residence time of 0.3 second, the molecularly disperse solution was mixed in mixing chamber B with a solution of 32 g of gelatin, 71.4 g of sucrose and 50 g of glucose syrup in 4000 g of water at a throughput rate of 100 L/h. After the solvent had been removed under reduced pressure in a distillation apparatus, an active ingredient dispersion was obtained, to which 8 g of sunflower oil and 8 g of propyl gallate were added. The propyl gallate was predissolved here in 200 mL of water and adjusted to pH 7 with NaOH. Subsequently, the dispersion was converted to a stable, water-soluble dry powder by spray drying. After dissolution in water, by photon correlation spectroscopy (PCS), a particle size of 386 nm (standard deviation 142.5, polydispersity index PDI 0.185, D(95): 660 nm) was measured (Malvern Zetasizer Nano ZSP).

[4] = impurity from ethoxyquin preparation remaining in animal feed; cited from earlier work

For `CCOC(=O)/C(C)=C/C=C/C(C)=C/C=C/C=C(C)/C=C/C=C(C)/C=C/C1=C(C)CCCC1(C)C` [C30 ester], the “D(95)” value [1] was 683 nm, the particle size [1] was 373 nm and the “polydispersity index PDI” value [1] was 0.203. The “Retention Active ingredient content after 4-week premix test” value ([2]; propyl gallate 0% by wt., dispersion) was 6.7%, the “Retention Active ingredient content after 4-week premix test” value ([2]; propyl gallate 2% by wt., dispersion) was 13.83% and the “Retention Active ingredient content after 4-week premix test” value ([2]; propyl gallate 4% by wt., dispersion) was 42.7%. The “Retention Active ingredient content after 4-week premix test” value ([2]; propyl gallate 6% by wt., dispersion) was 57.7%, the “Retention Active ingredient content after 4-week premix test” value ([2]; propyl gallate 8% by wt., dispersion) was 64.1% and the “Retention Active ingredient content after 4-week premix test” value ([2]; propyl gallate 10% by wt., dispersion) was 58.5%. The “Retention Active ingredient content after 4-week premix test” value ([2]; propyl gallate 12% by wt., dispersion) was 54.3%, the “Retention Active ingredient content after 4-week test” value ([2]; Table 3e, ethoxyquin 4% by wt., dispersion) was 28.6% and the “Retention Active ingredient content after 4-week test” value ([2]; Table 3e, propyl gallate 4% by wt., dispersion) was 33.4%. For the same compound, the “Retention Active ingredient content after 4-week test” value ([2]; Table 3e, propyl gallate 4% by wt., dispersion (pH adjustment before spraying from pH 8.5 to pH 6.8 with H2SO4)) was 39.8%, the “Retention Active ingredient content after 4-week test” value ([2]; Table 3e, propyl gallate 6% by wt., dispersion) was 44.4% and the “Retention Active ingredient content after 4-week test” value ([2]; Table 3e, propyl gallate 8% by wt., dispersion) was 43.4%. For the same compound, the Retention Active ingredient content after 4-week test ([2]; Table 4b, D,L-α tocopherol 4% by wt. (in active ingredient phase) + propyl gallate 4% by wt. (in protective colloid phase)) was 29.2%, the Retention Active ingredient content after 4-week test ([2]; Table 4b, mixed tocopherol 4% by wt. (in active ingredient phase) + propyl gallate 4% by wt. (in protective colloid phase)) was 57.5% and the “Retention Canthaxanthin after 4-week test” value (from here on “Retention Canthaxanthin”) ([2]; propyl gallate 0% by wt., mixed tocopherol 4% by wt.) was 11%. For the same compound, the “Retention Canthaxanthin” value ([2]; propyl gallate 4% by wt., mixed tocopherol 0% by wt.) was 42.7%, the “Retention Canthaxanthin” value ([2]; propyl gallate 4% by wt., mixed tocopherol 4% by wt.) was 61.7% and the particle size [3] was 280 nm. The “polydispersity index PDI” value [3] was 0.181.
In the case of `CCOc1ccc(N)cc1` [p-phenetidine], the mutagenicity [4] is given as “possibly a mutagen”.
